The values below come from patent US9399631B2, “Polyphenol proteasome inhibitors, synthesis, and methods of use” (UNIVERSITY OF SOUTH FLORIDA, priority 2003, dated 2016).

“Also recorded” adds a separate entry of the source. Read-outs that look alike come from different tables or passages of the source.

Experiment [1] addresses T1, 20S eukaryotic proteasome (Oryctolagus cuniculus, UniProt G1T4Q9).
T1 construct: purchased BOSTON BIOCHEM (Cambridge, Mass.)
T1 sequence (G1T4Q9 1-263): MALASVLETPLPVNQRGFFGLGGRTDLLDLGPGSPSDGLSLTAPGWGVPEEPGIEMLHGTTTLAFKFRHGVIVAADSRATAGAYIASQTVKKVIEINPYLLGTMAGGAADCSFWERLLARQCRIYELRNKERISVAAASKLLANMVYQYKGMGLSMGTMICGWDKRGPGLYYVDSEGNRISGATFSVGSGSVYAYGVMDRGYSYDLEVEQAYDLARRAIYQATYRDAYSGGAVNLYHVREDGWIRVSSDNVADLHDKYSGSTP
In words: Inhibition of chymotrypsin-like activity of purified eukaryotic 20S proteasome (Suc-Leu-Leu-Val-Tyr-AMC). Type of experiment: biochemical, rabbit. The following applies: chymotrypsin-like activity, rabbit 20S proteasome. The procedure: Materials. Highly purified tea polyphenols (−)-EGCG (>95%), (−)-GCG (>98%), (−)-ECG (>98%), (−)-CG (>98%), fetal calf serum, propidium iodide, 3-[4,5-dimethylthiazol-2-yl]-2,5-diphenyltetrazolium bromide (MTT), RNase A, and DMSO were purchased from Sigma (St. Louis, Mo.). (+)-EGCG, benzyl-protected-(+)-EGCG, (+)-GCG, (−)-EGCG-amide, and (+)-EGCG-amide were prepared by enantioselective synthesis (see below). Purified 20S eukaryotic proteasome from rabbit was purchased from BOSTON BIOCHEM (Cambridge, Mass.). Purified 20S prokaryotic proteasome (Methanosarcina thermophile, Recombinant, E. coli) was purchased from CALBIOCHEM (La Jolla, Calif.). Fluorogenic peptide substrates Suc-Leu-Leu-Val-Tyr-AMC (for the proteasomal chymotrypsin-like activity) was obtained from Calbiochem (La Jolla, Calif.). RPMI 1640 medium, Dulbecco's modified Eagle's medium, MEM non-essential amino acids solution, MEM-sodium pyruvate solution, penicillin, and streptomycin were from INVITROGEN (Carlsbad, Calif.). Monoclonal antibody to p27^Kip was purchased from PHARMINGEN (San Diego, Calif.); polyclonal antibodies to IκB-α, Bax and actin, and monoclonal antibody to ubiquitin were from SANTA CRUZ Biotechnology Inc. (Santa Cruz, Calif.).
(§1) Inhibition of purified 20S proteasome activity by natural or synthetic GTPs. Purified prokaryotic (0.5 μg) or eukaryotic (0.02 μg) 20S proteasome was incubated with 20 μM fluorogenic peptide substrate, Suc-Leu-Leu-Val-Tyr-AMC for 30 min at 37° C. in […] of assay buffer (50 mM Tris-HCl, pH 7.5), with or without a natural or synthetic tea polyphenol. After incubation, production of hydrolyzed 7-amido-4-methyl-coumarin (AMC) groups was measured using a multi-well plate VERSAFLUOR Fluorometer with an excitation filter of 380 nm and an emission filter of 460 nm (BIO-RAD), and a multi-well plate reader Wallac 1420 VICTORTM^2 with an excitation filter of 355 nm and an emission filter of 460 nm (EG&G WALLAC).
Purified prokaryotic (0.5 μg) or eukaryotic (0.02 μg) 20S proteasome was incubated with 20 μM fluorogenic peptide substrate, Suc-Leu-Leu-Val-Tyr-AMC for 30 minutes at 37° C. in 100 μl of assay buffer ([…] Tris-HCl, pH 7.5), with or without a natural or synthetic tea polyphenol. After incubation, production of hydrolyzed AMC groups was measured using a multi-well plate VERSAFLUOR Fluorometer with an excitation filter of 380 nm and an emission filter of 460 nm.
(−)-EGCG at 1 μM was incubated with eukaryotic 20S proteasome (0.02 μg) and suc-LLVY-AMC (20 μM) for the times indicated in FIG. 7. The chymotrypsin activity was measured and graphed in FIG. 7. Values are means from 4 independent experiments, and error bars represent standard deviations.
In the second experiment (−)-EGCG at 1 μM was pre-incubated with (SDS-pre) or without 0.01% SDS (no SDS) for 1 hour, followed by addition of eukaryotic 20S proteasome (0.02 μg) and suc-LLVY-AMC (20 μM). “SDS-post” represents the same treatment as “no SDS” except 0.01% SDS was added 1 hour after addition of the proteasome, (−)-EGCG and the substrate. AMC liberation was measured by fluorescence at each indicated time point and the percentage of chymotrypsin activity was determined. Values are means from 4 independent experiments, and error bars represent standard deviations.

In the next experiment the test system is MCF-7 cells. The experiment in a line: Proteasome inhibition / p27 accumulation in MCF-7 cells. The format is cell-based, human.
Experiment [2] deals with LNCaP cells. The experiment in a line: Western blot of proteasome target proteins in LNCaP cells. The format is cell-based, human. Conditions: 25 μM, up to 9 hours. The procedure: (§2) Cell Culture, Cell Extract Preparation, and Western Blot Assay. Human leukemia Jurkat T and prostate cancer LNCaP cells were cultured in RPMI 1640 medium supplemented with 10% fetal calf serum, 100 units/ml of penicillin, and 100 μg/ml streptomycin. Human immortalized, non-transformed NK cells (YT cell line) (38) were cultured in RPMI 1640 supplemented with 1 mM MEM sodium pyruvate solution, 0.1 mM MEM non-essential amino acids solution, 10% fetal calf serum. 100 units/ml penicillin, and 100 μg/ml streptomycin. Normal (WI-38) and simian virus 40 (SV40)-transformed (VA-13) human fibroblasts were grown in Dulbecco's modified Eagle's medium supplemented with 10% fetal calf serum, 100 units/ml of penicillin and 100 μg/ml of streptomycin. All cells were maintained at 37° C. in a humidified incubator with an atmosphere of 5% CO2. A whole cell extract was prepared in accordance with An et al. (An, B. et al. Cell Death Differ, 1998, 5:1062-75). Briefly, cells were harvested, washed with PBS twice, and homogenized in a lysis buffer [50 mM Tris-HCl (pH 8.0), 5 mM EDTA, 150 mM NaCl, 0.5% NP-40, 0.5 mM phenylmethylsulfonyl fluoride, and 0.5 mM dithiothreitol] for 30 min at 4° C. Afterwards, lysates were centrifuged at 12,000×g for 15 min at 4° C., and the supernatants were collected as whole cell extracts. Equal amounts of protein extract (60 μg) were resolved by SDS-polyacrylamide gel electrophoresis and transferred to a nitrocellulose membrane using a Semi-Dry Transfer system (BIO-RAD, Hercules, Calif.). Jurkat T, LNCaP, or DU-145 cells were treated with various concentrations of synthetic or natural tea polyphenols for indicted hours. The enhanced chemiluminescence (ECL) Western blot analysis was then performed using specific antibodies to the proteins of interest (p^27kip, IκB-α, PARP, Bax or actin). The ratio of p27 or IκB-α to the corresponding actin was determined by scanning intensities of the protein bands.
To investigate whether (−)-EGCG-amide and (+)-EGCG-amide inhibit intact tumor cell proteasome activity, human prostate cancer LNCaP cells were treated with 25 μM of (−)- or (+)-EGCG-amide for up to 9 hours, followed by measurement of p27, IκB-α and Bax, three well-known proteasome target proteins (Pagano, M. et al. Science, 1995, 269:682-685; An, B. et al. Cell Death Differ, 1998, 5:1062-75; Sun, J. et al. Cancer Res, 2001, 61:1280-1284; Palombella, V. J. et al. Cell, 1994, 78:773-785; Thompson, J. E. et al. Cell, 1995, 80:573-582; Perkins, N. D. Trends Biochem Sci, 2000, 25:434-440; Chang, Y. C. et al. Cell Growth Differ, 1998, 9:79-84; Li, B. and Dou, Q. P. Proc Natl Acad Sci USA, 2000, 97:3850-3855; Nam, S. et al. Cancer Epidemiol Biomarkers Prey, 2001, 10:1083-1088). In this experiment (−)-EGCG and (+)-EGCG were used as positive controls.
Having determined that the synthetic GTP-1 to −5 analogs are able to inhibit the proteasomal chymotrypsin-like activity in vitro (FIG. 8), these compounds were investigated for their potency in inhibiting intact tumor cellular proteasome activity. To do so, human prostate cancer LNCaP cells were treated with one of these compounds for the indicated hours, followed by measuring levels of proteasome target proteins, p27, IκB-α, and Bax, and polyubiquitinated proteins.

The test system of another experiment is VA-13 cells. The experiment in a line: Western blot of p27 in SV40-transformed VA-13 fibroblasts. The format is cell-based, human. The following applies: 25 μM, 12 hours. The procedure: as §2
Normal WI-38 and SV40-transformed VA-13 cell lines were treated with 25 μM of (−)-EGCG, (−)-EGCG-amide, (+)-EGCG, (+)-EGCG-amide, or GTP-1 for either 12 hours or 36 hours.
(In western blotting, separated proteins are transferred to a membrane and probed.)

Experiment [3] has as its target purified 20S proteasome (UniProt Q9P992). The experiment in a line: Inhibition of chymotrypsin-like activity of purified 20S proteasome (source not stated). The format is biochemical. Also on record: other: 1 μM; other: 10 μM. The following applies: 10 μM. The procedure: as §1
For experiment [4], the system named is purified 20S proteasome. The description is as above. Type of experiment: biochemical. The procedure: as §1
Experiment [5] has as its system 26S proteasome in a Jurkat cell lysate. The experiment in a line: Chymotrypsin-like activity of 26S proteasome in Jurkat cell lysate. The format is biochemical, human. Conditions: 10 μM. The procedure:
To determine the specificity of the synthetic GTP analogs, their effects were tested on the chymotrypsin-like and trypsin-like activities of the 26S proteasome in a Jurkat cell lysate. […] (+)-GCG at the same concentration inhibited ˜50% of the chymotrypsin-like activity. The potencies of (+)-EGCG and (+)-GCG were similar to those of their natural partners, respectively (FIG. 17A). […] Furthermore, none of the synthetic or control natural compounds could inhibit more than 15% of activity of a purified calpain enzyme (FIG. 17C). […] Values are mean triplicates and error bars denote standard deviations.

For experiment [6], the system named is LNCaP cells. In words: Soft agar colony formation assay. Type of experiment: cell-based, human. Conditions: 10 μM, 14 day-incubation. The procedure: Soft Agar Assay. The soft agar assay was performed according to Smith et al. (Smith, D. M. et al. Mol Med, 2002, 8:382-392) with a few modifications. In brief, in a six-well plate, a bottom feeder layer (0.6% agar) was prepared with DMEM media containing 10% fetal bovine serum, 100 units/ml penicillin, and 100 μg/ml streptomycin. A top layer (0.3% agar) was prepared with DMEM and the same media as described above but containing 2×10^4 prostate cancer LNCaP cells and indicated analogs or DMSO as a control. Plates were incubated at 37° C. in 5% CO2 in a humidified incubator for two weeks. MTT (1 mg/ml) was added to each well and incubated overnight to allow complete formation of purple formazan crystals. The plates were then scanned and photographed, and the number of colonies was quantified by QUANTITY ONE v.4.0.3 software (Bio-Rad, Hercules, Calif.).
The […] effects of several GTP analogs were investigated with a soft agar assay that measures the transforming activity of human tumor cells. LNCaP cells were plated in soft agar (see Materials and Methods) along with 50 μM of GTP-1, -2, -3, (−)-EGCG (as a positive control; Smith, D. M. et al. Mol Med, 2002, 8:382-392, 2002), or the solvent (as a negative control), followed by a 14 day-incubation to allow for colony formation (FIGS. 12A and 12B).
In a second experiment, LNCaP cells were plated in soft agar along with 10 μM of each indicated GTP or solvent (H2O), followed by a 14 day-incubation to allow for colony formation (FIG. 21A). […] Colonies were quantified with an automated counter and presented as mean values from triplicate independent experiments. Error bars denote standard deviations.

By IC50 is commonly meant the midpoint of a concentration-inhibition curve. Low values mean greater potency in that assay, high ones weaker potency in that assay.

purified 20S proteasome (UniProt Q9P992), sequence (Q9P992 whole entry): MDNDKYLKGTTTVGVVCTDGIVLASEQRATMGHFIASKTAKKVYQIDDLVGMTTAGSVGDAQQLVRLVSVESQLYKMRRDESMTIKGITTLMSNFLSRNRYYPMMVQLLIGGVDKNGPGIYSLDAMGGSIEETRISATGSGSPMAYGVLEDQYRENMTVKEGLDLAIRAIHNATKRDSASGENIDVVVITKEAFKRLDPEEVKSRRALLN

`O=C(N[C@H]1Cc2c(O)cc(O)cc2O[C@H]1c1cc(O)c(O)c(O)c1)c1cc(O)c(O)c(O)c1` [(+)-EGCG-amide, (+)-[2S, 3S]-N-[5,7-Dihydroxy-2-(3,4,5-trihydroxyphenyl)-chroman-3-yl]-3,4,5-trihydroxybenzamide]: the half-maximal inhibitory concentration (IC50) in experiment [1] worked out at 405 nM. For the same compound, the “inhibition of proteasome activity / accumulation of p27” value in the experiment on MCF-7 cells is given as “able to inhibit the proteasome activity”. The “levels of p27, IκB-α and Bax” value with LNCaP cells [2] was “able to increase levels of p27, IκB-α and Bax by 3 hours”. Further, the “levels of p27 protein” value with VA-13 cells was “significantly increased levels of p27 protein”.
In the case of `O=C(O[C@H]1Cc2c(OCc3ccccc3)cc(OCc3ccccc3)cc2O[C@H]1c1cc(OCc2ccccc2)c(OCc2ccccc2)c(OCc2ccccc2)c1)c1cc(OCc2ccccc2)c(OCc2ccccc2)c(OCc2ccccc2)c1` [Bn-(+)-EGCG], the “inhibition of proteasomal activity” value on purified 20S proteasome [3] is recorded as “did not significantly inhibit”. The entries for the “inhibition of the proteasome (in words)” value with purified 20S proteasome [4] and in the experiment with purified 20S proteasome [4] (listed as benzyl protected-EGCG) were “can not inhibit the proteasome” and “cannot inhibit the proteasome; also recorded: fails to inhibit the proteasome”, respectively. Besides, the “inhibition of chymotrypsin-like activity of 26S proteasome” value in experiment [5] was “could not inhibit the proteasomal chymotrypsin activity at all”. Moreover, in the experiment with LNCaP cells [6], the “inhibition of colony formation” value is recorded as roughly 10%.
